{"source": "patent US20220211846A1", "about": "“ABT-165 IN COMBINATION WITH FOLINIC ACID, 5-FLUOROURACIL, AND IRINOTECAN FOR THE TREATMENT OF CANCERS” (AbbVie Biotherapeutics Inc., priority 2017, published 2022)", "key": {"[1]": {"system": "human peripheral blood cells (PBC) from normal donors", "experiment": "Cytokine release by human peripheral blood cells", "type": "cell-based", "conditions": "within expected range of negative control IgG1 antibodies"}, "[2]": {"system": "HCT-116 human colon xenograft tumors", "experiment": "HCT-116 colon xenograft model", "type": "in vivo, female SCID mice", "experimental": "The effect of anti-DLL4-VEGF DVD-Igs (ABT-165) in combination with chemotherapy on tumor growth was evaluated on HCT-116 human colon xenograft tumors in female SCID mice. Briefly, 5×10^6 cells were inoculated subcutaneously into the right hind flank. Tumors were allowed to establish for 14 days, at which point tumor volume was determined using electronic caliper measurements using the formula: L×W^2/2. Mice were allocated into treatment groups (n=9 per group) so that each cohort had equivalent mean tumor volume of 192 mm^3 prior to initiation of therapy. Animals were dosed with 5-fluorouracil (5-FU), folinic acid (leucovorin), irinotecan, anti-VEGF mAb (AB014), and/or anti-DLL4-VEGF DVD-Ig (ABT-165) at the dose and schedule in Table 4. An anti-tetanus toxoid mAb (AB095) was used as a non-targeting isotype control. Tumor volume was measured twice a week for the duration of the experiment."}, "human VEGF": {"system": "human VEGF", "sequence (P15692 207-320 limits assumed)": "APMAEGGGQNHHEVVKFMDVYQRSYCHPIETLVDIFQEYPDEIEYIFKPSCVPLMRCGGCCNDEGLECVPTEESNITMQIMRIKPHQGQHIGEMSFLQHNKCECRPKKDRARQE", "experiment": "Binding affinity to VEGF"}, "[3]": {"system": "DLL4-mediated Notch-1 activation", "experiment": "Inhibition of DLL4-mediated Notch-1 activation", "type": "cell-based"}, "FcRn": {"biological_target": "FcRn (Homo sapiens, UniProt P55899)", "sequence (P55899 24-297 limits assumed, species assumed)": "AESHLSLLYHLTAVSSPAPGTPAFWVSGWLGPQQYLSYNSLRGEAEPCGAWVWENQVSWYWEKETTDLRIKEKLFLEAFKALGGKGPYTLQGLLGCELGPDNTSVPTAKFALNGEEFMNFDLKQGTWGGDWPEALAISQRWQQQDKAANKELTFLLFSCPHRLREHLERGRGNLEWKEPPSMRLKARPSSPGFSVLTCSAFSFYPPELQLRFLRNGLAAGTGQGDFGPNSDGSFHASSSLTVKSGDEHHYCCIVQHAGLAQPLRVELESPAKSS", "sequence (P61769 21-119 partner, species assumed)": "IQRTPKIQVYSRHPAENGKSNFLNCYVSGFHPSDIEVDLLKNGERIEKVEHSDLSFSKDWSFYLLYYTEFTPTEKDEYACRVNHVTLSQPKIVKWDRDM", "experiment": "Binding to FcRn", "conditions": "compared with human IgG1"}, "human DLL4": {"biological_target": "human DLL4 (Homo sapiens, UniProt Q9NR61)", "experiment": "Binding affinity to DLL4"}}, "note": "Marks after values point to notes of the source that are not given here."}
{"substance": "ABT-165: dual-variable domain humanized immunoglobulin with dual specificity for DLL4 and VEGF; light chain SEQ ID No. 15, heavy chain SEQ ID No. 16", "values": [{"measurement": "ability to stimulate cytokine release", "setting": "[1]", "result": "low ability"}, {"measurement": "efficacy compared to anti-VEGF monoclonal antibody (alone or each with FOLFIRI)", "setting": "[2]; colon cancer xenograft model, FIG. 1", "result": "superior efficacy"}, {"measurement": "% TGI (percent tumor growth inhibition = 100 − (T/C × 100))", "setting": "[2]; day 26 post size match, mean tumor volume vs treatment control group, dose and regimen as in Table 4, n=9 per group", "result": "67* %"}, {"measurement": "affinity to VEGF", "setting": "human VEGF", "result": "nanomolar affinities"}, {"measurement": "inhibition of DLL4-mediated Notch-1 activation", "setting": "[3]", "result": "potent inhibition"}, {"measurement": "binding to FcRn", "setting": "FcRn", "result": "pH-dependent binding to FcRn within the expected range of human IgG1"}, {"measurement": "affinity to DLL4", "setting": "human DLL4", "result": "nanomolar affinities"}]}
